The values below come from US4393076A, “Anti-inflammatory and analgesic gel composition” (priority 1980, dated 1983).

The conditions of series [1]: for Stability: indomethacin: to alkalies, ketoprofen and flurbiprofen: to the gel base.
The conditions of series [2]: orally administered; cited from earlier work.
The test system of series [3] is gastric mucous membrane. In words: Gastric mucous membrane troubles in rats (ulceration). In kind it is in vivo, rats (Wister strain, male). The settings on record: oral, 1 mg/Kg, 6 hours. The procedure: Anti-inflammatory activity on gastric mucous membrane troubles in rats
Male rats of Wister strain, each weighing about 200 g, were fasted except for unlimited feeding of water for a time period of 24 hours, after which each of the test compounds shown in Table 4 was administered to the rats so fasted. […] Six hours after said administration, the test animals were slaughtered to remove their stomachs which were incised along the greater curvature thereof to visually observe whether or not an ulcer was formed at the gastric mucous membrane of their stomachs. The ulceration ratio (%) was calculated from the following equation: [formula]

For the molecule `CC(C(=O)O)c1ccc(-c2ccccc2)c(F)c1` (centres unmarked) [flurbiprofen], the “Solubility in the gel base” value in series [1] (in words) is “excellent”. The Stability result in series [1] is “excellent in stability”.

With `COc1ccc2c(c1)c(CC(=O)O)c(C)n2C(=O)c1ccc(Cl)cc1` [indomethacin], the “Medicinal efficacy compared with the effective ingredient of the composition of this invention” value in series [2] is “equal or slightly superior in medicinal efficacy”. For the same molecule, the Crystallization result in series [1] (gel base, in words) is “apt to crystallize out”. In addition, in series [1] (in words), the “Solubility in the gel base” value is on record as “inferior in solubility in the gel base”. For the same molecule, the Stability entry in series [1] is listed as “unstable to alkalies”.

Consider `COc1ccc2c(c1)c(CC(=O)O)c(C)n2C(=O)c1ccc(Cl)cc1` [Indomethacin powder], for which the Ulceration ratio in series [3] was determined as 100.0%; in series [3] (listed as indomethacin powder) it was 100%.
